From patent publication US20090029855A1, “Quinoline Derivatives and Their Use as Pesticides” (priority 2006, published 2009) come the findings set out here.

Holding throughout (format): in vivo
Data set [1] has as its system Acrobat Ant (Crematogaster sp.). Put plainly: Acrobat ant glass vial (glass contact) assay. How it is done: (§1) Glass vials (20 ml scintillation vials) were treated with 0.44 ml of a solution of active ingredient in acetone. Each vial was rolled uncapped for ca. 10 minutes to allow the active ingredient to completely coat the vial and to allow for full drying of the acetone. Six insects or ticks were placed into each vial, with 5 vials per treatment rate. The vials are kept at 22° C. and are observed for treatment effects at various time intervals.

For data set [2] the test system is unchanged. The data set is described as follows: Acrobat ant soil incorporation assay. How it is done: (§2) Soil was prepared by adding stock solutions (active dissolved in acetone) to 100 g sandy loam soil to make 1, 10, and 100 ppm batches. Jars of soils were rolled on a jar roller to mix thoroughly and then allowed to vent over night with the acetone evaporating off.
Ant bioassays were conducted in 100×20 mm Petri dishes and were prepared with a layer of 1% agar (7 ml) and then 12.75 g of dry treated soil. A cotton pellet (#2) soaked with a 10% sugar solution was added to each dish in a micro-weigh boat as a source of moisture and food. Each dish was then infested with 15 acrobat ant workers, Crematogaster sp. Three replicates were setup per treatment rate. Mortality was observed daily up to 7 days with moribund and dead ants removed at each reading.

Data set [3] deals with Eastern Subterranean Termites (Reticulitérmes Flávipes). The data set is described as follows: Activity against eastern subterranean termites via termite filter paper bait. Here is the method:
Toxicant treatments (0.1 and 0.3% test compound w/w) were applied to 4.25 cm (diam.) filter papers in acetone solution. Treatment levels (% test compound) were calculated on basis of a mean weight per filter paper of 106.5 mg. Treatment solutions were adjusted to provide the quantity of toxicant (mg) required per paper in […] of acetone. Acetone only was applied for untreated controls. Treated papers were vented to evaporate the acetone, moistened with 0.25 ml water, and placed in corresponding test arenas.
Termite bait bioassays were conducted in 100×15 mm Petri dishes with 1 teaspoon fine sand spread in a thin layer over the bottom of each dish. An additional 0.25 teaspoon sand was piled against the side of each dish. The sand was moistened with 2.7 ml water applied to the piled sand. Water was added to dishes as needed over the course of the bioassays to maintain high moisture content. Bioassays had one treated filter (on the sand) and 30 termite workers per test dish. Each treatment level was replicated in 3 test dishes. Test dishes were maintained at approximately 30° C. and 85% humidity for 14 days and observed daily for mortality.

The test system of data set [4] is Yellowfever Mosquito (Aedes aegypti). The data set is described as follows: Yellowfever mosquito glass vial (glass contact) assay. Here is the method:
as §1

The test system of data set [5] is House Fly (Musca domestica). The data set is described as follows: House fly glass vial (glass contact) assay. Here is the method:
as §1

Data set [6] deals with Subterranean Termites (Reticulitermes flavipes). The data set is described as follows: Termite soil incorporation assay. Particulars: 100 ppm after 9 days. How it is done: as §2
Subterranean termite bioassays were conducted in 50×15 mm Petri dishes and were prepared with a layer of 1% agar (2 ml) and then 2 g of dry treated soil. A 1 cm^2 piece of filter paper, moistened with 1 drop of distilled water was added to each dish as a source of cellulose food. Each dish was then infested with 15 eastern subterranean termite workers, Reticulitermes flavipes. Five replicates were setup per treatment rate. Mortality was observed daily up to 7 days with moribund and dead termites removed at each reading.

Data set [7] concerns Yellowfever Mosquitos (Aedes Aegypti), 4th instar larvae. Put plainly: Activity against yellowfever mosquitos via water treatment. Here is the method: The test compound (1 Vol % in acetone) was applied to 9 ml distilled water In polystyrene plastic 6-well plates. Treatment rates were applied 1 and 10 ppm. Ten, 4th instar yellowfever mosquito larvae, Aedes aegypti, were added to each well in 1 ml of distilled water. The test dishes were maintained at 22° C. and observed daily for mortality, up to 5 days after treatment. Each treatment was replicated in 6 wells.

In data set [8] the test system is Southern Armyworm (Spodoptera Eridanid), 2nd-3rd instar larvae. The data set is described as follows: Southern armyworm, lima bean foliage dip. Particulars: foliar, 96 h, after 4 days, read-out: mortality in comparison with untreated controls. How it is done:
The active compounds were formulated as a 10.000 ppm solution in a mixture of 35% acetone and water, which was diluted with water, if needed.
Sieva lima bean foliage, expanded to the first true leaves, were dipped and agitated in the test solution for 3 seconds and then allowed to dry in a fume hood. The treated plant was then placed in 25-cm plastic perforated zip enclosure bags, ten 2nd-instar larvae were added, and the bags sealed. After 4 days, observations were made of mortality, plant feeding, and of any interference with larval growth.

The test system of data set [9] is Green Peach Aphid (Myzus Persicae). Put plainly: Green peach aphid, pepper plant leaf dip. The settings on record: foliar, 120 h, after 5 days, read-out: mortality in comparison with untreated controls. How it is done: (§3) The active compounds were formulated in 50:50 acetone:water and 100 ppm Kinetic™ surfactant.
Pepper plants in the 2nd leaf-pair stage (variety California Wonder) were infested with approximately 40 laboratory-reared aphids by placing infested leaf sections on top of the test plants. The leaf sections were removed after 24 hr. The leaves of the intact plants were dipped into gradient solutions of the test compound and allowed to dry. Test plants were maintained under fluorescent light (24 hour photoperiod) at about 25° C. and 20-40% relative humidity. Aphid mortality on the treated plants, relative to mortality on check plants, was determined after 5 days.

For data set [10], the system named is Diamond Back Moth (plutella Xylostella). The data set is described as follows: Activity against diamond back moth, cabbage leaf disk dip. Particulars: foliar, after 72 h, read-out: mortality in comparison with untreated controls. How it is done:
13. Activity Against Diamond Back Moth (plutella Xylostella) The active compounds were formulated in 50:50 acetone:water and 0.1% (vol/vol) Alkamuls EL 620 surfactant. A 6 cm leaf disk of cabbage leaves was dipped in the test solution for 3 seconds and allowed to air dry in a Petri plate lined with moist filter paper. The leaf disk was inoculated with 10 third instar larvae and kept at 25-27° C. and 50-60% humidity for 3 days. Mortality was assessed after 72 h of treatment.

The subject of data set [11] is Cowpea Aphid (Aphis Craccivora). The data set is described as follows: Activity against cowpea aphid, sprayed potted cowpea plants. Particulars: population reduction recorded after 24, 72 and 120 hours, read-out: mortality in comparison with untreated controls. How it is done: The active compounds were formulated in 50:50 acetone:water. Potted cowpea plants colonized with 100-150 aphids of various stages were sprayed after the pest population has been recorded. Population reduction was recorded after 24, 72, and 120 hours.

For data set [12], the system named is Cotton Aphid (Aphis Gossypil), mixed life stages. The data set is described as follows: Cotton aphid, mixed life stages, cotton cotyledon dip. Particulars: 120 h, after 5 days, read-out: mortality in comparison with untreated controls. An excerpt:
The active compounds were formulated in 50:50 acetone:water and 100 ppm Kinetic® surfactant.
Cotton plants at the cotyledon stage were infested prior to treatment by placing a heavily infested leaf from the main aphid colony on top of each cotyledon. The aphids were allowed to transfer overnight and the host leaf was removed. The infested cotyledons were then dipped and agitated in the test solution for 3 seconds and allowed to dry in a fume hood. Test plants were maintained under fluorescent lighting in a 24-hr photoperiod at 25° C. and 20-40% relative humidity. Aphid mortality on the treated plants, relative to mortality on untreated check plants, was determined after 5 days.

Data set [13] concerns Boll Weevil (Anthonomus grandis). The data set is described as follows: Activity against boll weevil, eggs in microtiterplates. Particulars: eggs sprayed, 3 to 5 days. Here is the method: The active compounds were formulated in 1:3 DMSO:water. 10 to 15 eggs were placed into microtiterplates filled with 2% agar-agar in water and 300 ppm formaline. The eggs were sprayed with 20 μl of the test solution, the plates were sealed with pierced foils and kept at 24-26° C. and 75-85% humidity with a day/night cycle for 3 to 5 days. Mortality was assessed on the basis of the remaining unhatched eggs or larvae on the agar surface and/or quantity and depth of the digging channels caused by the hatched larvae. Tests were replicated 2 times.

The subject of data set [14] is Mediterranean Fruitfly (Ceratitis Capifata). Put plainly: Activity against Mediterranean fruitfly, eggs in microtiterplates. Particulars: 144 h, eggs sprayed, 6 days. How it is done:
The active compounds were formulated in 1:3 DMSO:water. 50 to 80 eggs were placed into microtiterplates filled with 0.5% agar-agar and 14% diet in water. The eggs were sprayed with 5 μl of the test solution, the plates were sealed with pierced foils and kept at 27-29° C. and 75-85% humidity under fluorescent light for 6 days. Mortality was assessed on the basis of the agility of the hatched larvae. Tests were replicated 2 times.

In data set [15] the test system is Tobacco Budworm (Heliothis Virescens). The data set is described as follows: Activity against tobacco budworm, eggs in microtiterplates. Particulars: 144 h, eggs sprayed, 6 days. How it is done: The active compounds were formulated in 1:3 DMSO:water. 15 to 25 eggs were placed into microtiterplates filled with diet. The eggs were sprayed with 10 μl of the test solution, the plates were sealed with pierced foils and kept at 27-29° C. and 75-85% humidity under fluorescent light for 6 days. Mortality was assessed on the basis of the agility and of comparative feeding of the hatched larvae. Tests were replicated 2 times.

Data set [16] deals with Silverleaf whitefly (Bemisia Argentifolii). Put plainly: Silverleaf whitefly, cotton cotyledon dip. Particulars: 72 h, 3 days after treatment, read-out: mortality in comparison with untreated controls. How it is done:
as §3
Selected cotton plants were grown to the cotyledon state (one plant per pot). The cotyledons were dipped into the test solution to provide complete coverage of the foliage and placed in a well-vented area to dry. Each pot with treated seedling was placed in a plastic cup and 10 to 12 whitefly adults (approximately 3-5 day old) were introduced. The insects were colleted using an aspirator and an 0.6 cm, non-toxic Tygon tubing connected to a barrier pipette tip. The tip, containing the collected insects, was then gently inserted into the soil containing the treated plant, allowing insects to crawl out of the tip to reach the foliage for feeding. The cups were covered with a re-usable screened lid (150 micron mesh polyester screen PeCap from Tetko Inc). Test plants were maintained in the holding room at about 25° C. and 20-40% relative humidity for 3 days avoiding direct exposure to the fluorescent light (24 hour photoperiod) to prevent trapping of heat inside the cup. Mortality was assessed 3 days after treatment of the plants.

Data set [17] deals with Vetch Aphid (Megoura Viciae). The data set is described as follows: Activity against vetch aphid, bean leaf disks in microtiterplates. The settings on record: foliar, 144 h, leaf disks sprayed, 6 days. Here is the method:
The active compounds were formulated in 1:3 DMSO:water. Bean leaf disks were placed into microtiterplates filled with 0.8% agar-agar and 2.5 ppm OPUS™. The leaf disks were sprayed with 2.5 μl of the test solution and 5 to 8 adult aphids were placed into the microtiterplates which were then closed and kept at 22-24° C. and 35-45% under fluorescent light for 6 days. Mortality was assessed on the basis of vital, reproduced aphids. Tests were replicated 2 times.

Data set [18] relates to Colorado Potato Beetle (Leptinotarsa Decemlineata). The data set is described as follows: Colorado potato beetle, potato leaf dip in Petri dishes. The settings on record: foliar, 120 h, 5 days after treatment, read-out: mortality in comparison with untreated controls. Here is the method:
Potato plants were utilized for bioassays. Excised plant leaves were dipped into 1:1 acetone/water dilutions of the active compounds. After the leaves had dried, they were individually placed onto water-moistened filter paper on the bottoms of Petri dishes. Each dish was infested with 5-7 larvae and covered with a lid. Each treatment dilution was replicated 4 times. Test dishes were held at approximately 27° C. and 60% humidity. Numbers of live and morbid larvae were assessed in each dish at 5 days after treatment application, and percent mortality was calculated.

In data set [19] the test system is 2-Spotted Spider Mite (Tetranychus Urticae, OP-Resistant Strain). Put plainly: 2-spotted spider mite, lima bean plant dip. Particulars: 300 ppm; after 5 days. How it is done: as §3
Sieva lima bean plants with primary leaves expanded to 7-12 cm were infested by placing on each a small piece from an infested leaf (with about 100 mites) taken from the main colony. This was done at about 2 hours before treatment to allow the mites to move over to the test plant to lay eggs. The piece of leaf used to transfer the mites was removed. The newly-infested plants were dipped in the test solution and allowed to dry. The test plants were kept under fluorescent light (24 hour photoperiod) at about 25° C. and 20-40% relative humidity. After 5 days, one leaf was removed and mortality counts were made.

For `O=S(=O)(NCc1ccnc2ccccc12)c1ccc(-c2ccc(Cl)cc2Cl)cc1` [I-1], the mortality in [1] (100 ppm after 4 days) is given as 7%; in [2] (100 ppm after 7 days), 36%; in data set [3] (0.1% w/w after 7 days), 99%; in [4] (10 ppm after 48 hours), 37%; in data set [5] (10 ppm after 48 hours), 30%; in data set [6], 95%. In addition, the mortality in [7] (1 ppm after 3 days) is on record as 100%.
Take `O=S(=O)(NCc1ccnc2ccccc12)c1ccc(-c2cc(Cl)ccc2Cl)cc1` [I-8, 2′,5′-dichloro-biphenyl-4-sulfonicacid (quinoline-4-ylmethyl)-amide]: the mortality at 300 ppm in [8] was not below 80%; in [9], not below 75%; in data set [10], not below 75%; in data set [11], not below 80%; in data set [12] it was not below 80%; in data set [16], not below 70%. The mortality at 2500 ppm in data set [13], in data set [14], in data set [15] and in data set [17] was not below 75% each time.
On to `O=S(=O)(NCc1ccnc2ccccc12)c1ccc(-c2ccc(C(F)(F)F)cc2C(F)(F)F)cc1` [I-10], for which the mortality in data set [1] (100 ppm after 2 days) is recorded as 86%; in [2] (100 ppm after 3 days), 100%; in data set [3] (0.3% w/w after 14 days), 86%; in [4] (10 ppm after 24 hours) it was 100%; in data set [5] (10 ppm after 24 hours), 80%; in [6], 84%. The mortality in data set [7] (10 ppm after 5 days) was found to be 52%.
With `O=S(=O)(NCc1ccnc2c(Cl)cccc12)c1ccc(-c2ccc(C(F)(F)F)cc2C(F)(F)F)cc1` [I-22, 2′,4′-bis-trifluoromethyl-biphenyl-4-sulfonic acid (8-chloroquinoline-4-yl-methyl)-amide], the results for the mortality at 300 ppm in data set [8] and in data set [18] were not below 80% and not below 75%, respectively.
Turning to `Cc1cc(C(F)(C(F)(F)F)C(F)(F)F)ccc1-c1ccc(S(=O)(=O)NCc2ccnc3ccccc23)cc1` [I-46], in [19], the “mortality in comparison with untreated controls” value is reported as “at least 70%”.
In data set [13], `O=S(=O)(NCc1ccnc2c(F)cccc12)c1ccc(Br)cc1` [II-5, 4-bromo-N-(8-fluoro-quinolin-4-ylmethyl)-benzenesulfonamide] showed a mortality at 2500 ppm not below 75%.
